For this test, the target named is T1, human GPR119 (hGPR119) (Homo sapiens, UniProt Q8TDV5).
T1 construct: expressed in transfected cells
T1 sequence (Q8TDV5 1-335): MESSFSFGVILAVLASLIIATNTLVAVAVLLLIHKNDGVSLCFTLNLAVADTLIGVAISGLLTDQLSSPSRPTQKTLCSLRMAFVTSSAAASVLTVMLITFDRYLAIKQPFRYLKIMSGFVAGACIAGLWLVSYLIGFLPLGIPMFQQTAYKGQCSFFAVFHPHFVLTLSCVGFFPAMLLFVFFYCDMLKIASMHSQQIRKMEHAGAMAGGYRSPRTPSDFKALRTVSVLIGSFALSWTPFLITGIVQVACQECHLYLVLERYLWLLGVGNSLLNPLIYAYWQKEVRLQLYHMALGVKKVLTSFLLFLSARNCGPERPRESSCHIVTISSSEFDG
The experiment in a line: cAMP accumulation assay (cAMP Gs dynamic HTRF kit). The class given is cell-based. The conditions noted are these: CHO-K1 cells stably expressing hGPR119, 4-parameter fit; for Emax: 1 h, % activity normalized to Max/Min controls; for EC50: cAMP accumulation. In a few lines: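 CHO-K1 cells stably expressing hGPR119, used as assay-ready frozen stocks at ~10,000 cells/well, exposed to compound dose-response in stimulation buffer with Tween 80 for 60 min at 37° C. cAMP read by HTRF (665/620 nm ratio), normalised to Max/Min controls; EC50 and Max activity from 4-parameter fit.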

Broadly, the Emax is the maximal effect, on the per cent scale that the assay sets. The EC50 is the concentration at which the effect is half-maximal. A high value points to lower potency in that assay.

`O=C(Cc1ccc(OCCCC2CCN(c3ncc(CO)cn3)CC2)cc1F)N1CC(CNC[C@H](O)[C@@H](O)[C@H](O)[C@H](O)CO)C1` [Example 93, 2-[2-fluoro-4-[3-[1-[5-(hydroxymethyl)pyrimidin-2-yl]-4-piperidyl]propoxy]phenyl]-1-[3-[[[(2S,3R,4R,5R)-2,3,4,5,6-pentahydroxyhexyl]amino]methyl]azetidin-1-yl]ethanone] gave a maximum response (Emax) of 50 to 100% and an EC50 of 1000 to 10000 nM.

`O=C(Cc1ccc(OCCCC2CCN(c3ncc(Cl)cn3)CC2)cc1F)N1CC(CN2C[C@@H](O)[C@H](O)C2)C1` (stereo in doubt) [Example 47, 2-[4-[3-[1-(5-chloropyrimidin-2-yl)-4-piperidyl]propoxy]-2-fluoro-phenyl]-1-[3-[[rac-(3R,4R)-3,4-dihydroxypyrrolidin-1-yl]methyl]azetidin-1-yl]ethanone] returned an Emax of 100 to 130% and an EC50 of at most 100 nM.

As for `O=C(CC1CN(C(=O)Cc2ccc(OCCCC3CCN(c4ncc(Cl)cn4)CC3)cc2F)C1)NCC(O)(CO)CO` [Example 33, 2-[1-[2-[4-[3-[1-(5-chloropyrimidin-2-yl)-4-piperidyl]propoxy]-2-fluoro-phenyl]acetyl]azetidin-3-yl]-N-[2,3-dihydroxy-2-(hydroxymethyl)propyl]acetamide], the maximal effect (Emax) was at least 130% and the EC50 is 100 to 1000 nM.

With `COCC1(C(=O)NC[C@H](O)[C@@H](O)[C@H](O)[C@H](O)CO)CCN(C(=O)Cc2ccc(OCCCC3CCN(c4ncc(Cl)cn4)CC3)cc2F)C1` (stereo partly drawn) [Example 136, 1-[2-[4-[3-[1-(5-chloropyrimidin-2-yl)-4-piperidyl]propoxy]-2-fluoro-phenyl]acetyl]-3-(methoxymethyl)-N-[(2S,3R,4R,5R)-2,3,4,5,6-pentahydroxyhexyl]pyrrolidine-3-carboxamide], the Emax fell in the range of 100 to 130% and the concentration giving a half-maximal response (EC50) was at most 100 nM.

The molecule `CCCc1cnc(N2CCC(CCCOc3ccc(CC(=O)N4CC(CNCC(CO)CO)C4)c(F)c3)CC2)nc1` [Example 70, 2-(2-fluoro-4-(3-(1-(5-propylpyrimidin-2-yl)piperidin-4-yl)propoxy)phenyl)-1-(3-(((3-hydroxy-2-(hydroxymethyl)propyl)amino)methyl)azetidin-1-yl)ethan-1-one] came in with a maximal effect (Emax) of 100 to 130% and a concentration giving a half-maximal response (EC50) of at most 100 nM.

In the case of `CCOc1cnc(N2CCC(CCCOc3ccc(CC(=O)N4CC(CC(=O)NCC(O)(CO)CO)C4)c(F)c3)CC2)nc1` [Example 108, N-[2,3-dihydroxy-2-(hydroxymethyl)propyl]-2-[1-[2-[4-[3-[1-(5-ethoxypyrimidin-2-yl)-4-piperidyl]propoxy]-2-fluoro-phenyl]acetyl]azetidin-3-yl]acetamide], the Emax lay in the range of 100 to 130% and the concentration giving a half-maximal response (EC50) is at most 100 nM.

Take `O=C(NC(CO)CO)C1CN(C(=O)Cc2ccc(OCCCC3CCN(c4ncc(Cl)cn4)CC3)cc2F)C1` [Example 28, 1-[2-[4-[3-[1-(5-chloropyrimidin-2-yl)-4-piperidyl]propoxy]-2-fluoro-phenyl]acetyl]-N-[2-hydroxy-1-(hydroxymethyl)ethyl]azetidine-3-carboxamide]: the Emax was in the range of 100 to 130% and the 50% effective concentration (EC50) fell in the range of 100 to 1000 nM.

For `O=C(CC1CN(C(=O)Cc2ccc(OCCCC3CCN(c4ncc(Cl)cn4)CC3)cc2F)C1)NCCCS(=O)(=O)O` [Example 177, 3-[[2-[1-[2-[4-[3-[1-(5-chloropyrimidin-2-yl)-4-piperidyl]propoxy]-2-fluoro-phenyl]acetyl]azetidin-3-yl]acetyl]amino]propane-1-sulfonic acid], the Emax fell in the range of 100 to 130% and the concentration for a half-maximal effect (EC50) is 100 to 1000 nM.

Turning to `CCOc1cnc(N2CCC(CCCOc3cc(F)c(CC(=O)N4CC(CNC[C@H](O)[C@@H](O)[C@H](O)[C@H](O)CO)C4)c(F)c3)CC2)nc1` [Example 114, 2-[4-[3-[1-(5-ethoxypyrimidin-2-yl)-4-piperidyl]propoxy]-2,6-difluoro-phenyl]-1-[3-[[[(2S,3R,4R,5R)-2,3,4,5,6-pentahydroxyhexyl]amino]methyl]azetidin-1-yl]ethanone], the maximal effect (Emax) was 100 to 130% and the EC50 is at most 100 nM.

In the case of `COCc1cnc(N2CCC(CCCOc3ccc(CC(=O)N4CC(C(=O)NC[C@H](O)[C@@H](O)[C@H](O)[C@H](O)CO)C4)c(F)c3)CC2)nc1` (racemic) [Example 39, 1-[2-[2-fluoro-4-[3-[1-[5-(methoxymethyl)pyrimidin-2-yl]-4-piperidyl]propoxy]phenyl]acetyl]-N-[rac-(2S,3R,4R,5R)-2,3,4,5,6-pentahydroxyhexyl]azetidine-3-carboxamide], the Emax is 100 to 130% and the EC50 fell in the range of 100 to 1000 nM.

With `O=C(Cc1c(F)cc(OCCCC2CCN(c3ncc(Cl)cn3)CC2)cc1F)N1CC[C@@H](CNCC(CO)(CO)CO)C1` [Example 151, 2-[4-[3-[1-(5-chloropyrimidin-2-yl)-4-piperidyl]propoxy]-2,6-difluoro-phenyl]-1-[(3S)-3-[[[3-hydroxy-2,2-bis(hydroxymethyl)propyl]amino]methyl]pyrrolidin-1-yl]ethanone], the Emax was at least 130% and the 50% effective concentration (EC50) was at most 100 nM.

In turn, `O=C(Cc1ccc(OCCCC2CCN(c3ncc(Cl)cn3)CC2)cc1F)NCCCCC(=O)NC(CO)(CO)CO` [Example 24, 5-[[2-[4-[3-[1-(5-chloropyrimidin-2-yl)-4-piperidyl]propoxy]-2-fluoro-phenyl]acetyl]amino]-N-[2-hydroxy-1,1-bis(hydroxymethyl)ethyl]pentanamide] returned an Emax of at least 130% and an EC50 of 100 to 1000 nM.

In turn, `O=C(Cc1ccc(OCCCC2CCN(c3ncc(Cl)cn3)CC2)cc1F)N1CC(CNCC(CO)CO)C1` [Example 45, 2-[4-[3-[1-(5-chloropyrimidin-2-yl)-4-piperidyl]propoxy]-2-fluoro-phenyl]-1-[3-[[[3-hydroxy-2-(hydroxymethyl)propyl]amino]methyl]azetidin-1-yl]ethanone] had an Emax of 100 to 130% and a 50% effective concentration (EC50) of at most 100 nM.

`O=C(OCCC1CCN(c2ncc(Cl)cn2)CC1)c1ccc(CC(=O)N2CC(CNC[C@H](O)[C@@H](O)[C@H](O)[C@H](O)CO)C2)c(F)c1` (racemic) [Example 91, 2-[1-(5-chloropyrimidin-2-yl)-4-piperidyl]ethyl 3-fluoro-4-[2-oxo-2-[3-[[[rac-(2S,3R,4R,5R)-2,3,4,5,6-pentahydroxyhexyl]amino]methyl]azetidin-1-yl]ethyl]benzoate]: the maximal effect (Emax) was 100 to 130% and the EC50 was 1000 to 10000 nM.

As for `O=C(Cc1c(F)cc(OCCC2CCC23CCN(c2ncc(Cl)cn2)CC3)cc1F)N1CC(CNC[C@H](O)[C@@H](O)[C@H](O)[C@H](O)CO)C1` (stereo partly drawn) [Example 139, 2-[4-[2-[7-(5-chloropyrimidin-2-yl)-7-azaspiro[3.5]nonan-3-yl]ethoxy]-2,6-difluoro-phenyl]-1-[3-[[[(2S,3R,4R,5R)-2,3,4,5,6-pentahydroxyhexyl]amino]methyl]azetidin-1-yl]ethanone], the Emax lay within 100 to 130% and the EC50 was in the range of 100 to 1000 nM.

Molecule `O=C(Cc1ccc(OCCCC2CCN(c3ncc(Cl)cn3)CC2)cc1F)N1CC(CO)(CO)C1` [Example 9, 1-[3,3-bis(hydroxymethyl)azetidin-1-yl]-2-[4-[3-[1-(5-chloropyrimidin-2-yl)-4-piperidyl]propoxy]-2-fluoro-phenyl]ethanone] returned an Emax of 100 to 130% and an EC50 of at most 100 nM.

In turn, `O=C(Cc1ccc(OCCC[C@@H]2[C@H]3CN(c4ncc(Cl)cn4)C[C@@H]23)cc1F)N1CC(CNC[C@H](O)[C@@H](O)[C@H](O)[C@H](O)CO)C1` [Example 113, 2-[4-[3-[(1R,5S)-3-(5-chloropyrimidin-2-yl)-3-azabicyclo[3.1.0]hexan-6-yl]propoxy]-2-fluoro-phenyl]-1-[3-[[[(2S,3R,4R,5R)-2,3,4,5,6-pentahydroxyhexyl]amino]methyl]azetidin-1-yl]ethanone] registered an Emax of 100 to 130% and an EC50 of 100 to 1000 nM.

The molecule `CCc1cnc(N2CCC(CCCOc3cc(F)c(CC(=O)N4CC(CNCC(O)(CO)CO)C4)c(F)c3)CC2)nc1` [Example 67, 1-(3-(((2,3-dihydroxy-2-(hydroxymethyl)propyl)amino)methyl)azetidin-1-yl)-2-(4-(3-(1-(5-ethylpyrimidin-2-yl)piperidin-4-yl)propoxy)-2,6-difluorophenyl)ethan-1-one] had a maximal effect (Emax) of 100 to 130% and an EC50 of at most 100 nM.

The molecule `CC1(CCCCOc2ccc(CC(=O)N3CC(CNC[C@H](O)[C@@H](O)[C@H](O)[C@H](O)CO)C3)c(F)c2)CCN(c2ncc(Cl)cn2)CC1` [Example 109, 2-[4-[4-[1-(5-chloropyrimidin-2-yl)-4-methyl-4-piperidyl]butoxy]-2-fluoro-phenyl]-1-[3-[[[(2S,3R,4R,5R)-2,3,4,5,6-pentahydroxyhexyl]amino]methyl]azetidin-1-yl]ethanone] gave a maximum response (Emax) of 100 to 130% and a concentration for a half-maximal effect (EC50) of 100 to 1000 nM.

`COCc1cnc(N2CCC(CCCOc3cc(F)c(CC(=O)N4CC(CNC[C@H](O)[C@@H](O)[C@H](O)[C@H](O)CO)C4)c(F)c3)CC2)nc1` [Example 94, 2-(2,6-difluoro-4-(3-(1-(5-(methoxymethyl)pyrimidin-2-yl)piperidin-4-yl)propoxy)phenyl)-1-(3-((((2S,3R,4R,5R)-2,3,4,5,6-pentahydroxyhexyl)amino)methyl)azetidin-1-yl)ethan-1-one] had a maximal response (Emax) of 100 to 130% and an EC50 of 100 to 1000 nM.
